Experimental data as given in ChEMBL document CHEMBL5665443, “Enzyme Inhibitor Single Concentration assay results for EUbOPEN Chemogenomics Library” (2024).

Experiments:
[1] = target: T1, Endonuclease 8-like 2 (Homo sapiens) (UniProt Q969S2);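 note: fluorescence at 594 nm reports NEIL2 cutting and release of a quenched double-stranded DNA oligo substrate, reduced signal read as inhibition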
T1 sequence (whole entry): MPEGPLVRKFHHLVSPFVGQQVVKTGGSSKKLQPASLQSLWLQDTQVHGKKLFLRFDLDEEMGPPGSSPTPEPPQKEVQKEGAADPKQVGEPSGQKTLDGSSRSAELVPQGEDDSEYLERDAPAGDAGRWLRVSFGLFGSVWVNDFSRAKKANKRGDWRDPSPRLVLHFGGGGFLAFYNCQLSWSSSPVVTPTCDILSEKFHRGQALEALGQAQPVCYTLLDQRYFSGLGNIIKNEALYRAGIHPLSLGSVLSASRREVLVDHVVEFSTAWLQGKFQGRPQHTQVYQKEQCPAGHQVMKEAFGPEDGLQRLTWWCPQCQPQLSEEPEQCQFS
Description: Inhibition of NEIL2 by quantifying inhibition of NEIL2-mediated cleavage and dissociation of quenched duplex DNA oligonucleotides, measured as fluorescence at 594 nm.

[2] = target: Methyl-CpG-binding domain protein 4 (Homo sapiens) (UniProt O95243); conditions: Hit No;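 note: MBD4 activity read as fluorescence at 594 nm from cleavage and release of a quenched duplex DNA oligonucleotide, with APE1 coupled to incise the strand and raise turnover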
Methyl-CpG-binding domain protein 4 (Homo sapiens), sequence (O95243 whole entry, the tested form may be a part): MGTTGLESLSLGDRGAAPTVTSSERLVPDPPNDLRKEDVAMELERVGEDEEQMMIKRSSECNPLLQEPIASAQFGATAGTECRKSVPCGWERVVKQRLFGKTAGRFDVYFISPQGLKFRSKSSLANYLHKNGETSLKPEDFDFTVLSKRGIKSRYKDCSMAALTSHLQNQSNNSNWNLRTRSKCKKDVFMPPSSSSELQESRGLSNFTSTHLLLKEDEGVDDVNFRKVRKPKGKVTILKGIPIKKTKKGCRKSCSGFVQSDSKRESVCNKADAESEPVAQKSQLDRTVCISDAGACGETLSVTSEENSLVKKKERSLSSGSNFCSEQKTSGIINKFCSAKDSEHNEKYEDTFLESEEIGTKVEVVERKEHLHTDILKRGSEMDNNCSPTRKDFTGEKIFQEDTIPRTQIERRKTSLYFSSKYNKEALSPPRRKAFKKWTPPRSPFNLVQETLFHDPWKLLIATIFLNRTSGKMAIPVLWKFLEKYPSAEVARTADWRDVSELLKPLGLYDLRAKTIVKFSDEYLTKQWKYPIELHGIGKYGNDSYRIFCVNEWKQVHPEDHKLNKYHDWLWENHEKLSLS
Description: Inhibition of MBD4 by quantifying inhibition of MBD4-mediated cleavage and dissociation of quenched duplex DNA oligonucleotides, measured as fluorescence at 594 nm. To generate a functional strand incision and increase turn-over this assay is coupled to APE1.

[3] = target: Endonuclease 8-like 1 (Homo sapiens) (UniProt Q96FI4); conditions: Hit No;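 note: fluorescence at 594 nm from quenched duplex DNA oligonucleotides released by NEIL1 cleavage and strand separation, reported as reduction of this enzyme activity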
Endonuclease 8-like 1 (Homo sapiens), sequence (Q96FI4 whole entry): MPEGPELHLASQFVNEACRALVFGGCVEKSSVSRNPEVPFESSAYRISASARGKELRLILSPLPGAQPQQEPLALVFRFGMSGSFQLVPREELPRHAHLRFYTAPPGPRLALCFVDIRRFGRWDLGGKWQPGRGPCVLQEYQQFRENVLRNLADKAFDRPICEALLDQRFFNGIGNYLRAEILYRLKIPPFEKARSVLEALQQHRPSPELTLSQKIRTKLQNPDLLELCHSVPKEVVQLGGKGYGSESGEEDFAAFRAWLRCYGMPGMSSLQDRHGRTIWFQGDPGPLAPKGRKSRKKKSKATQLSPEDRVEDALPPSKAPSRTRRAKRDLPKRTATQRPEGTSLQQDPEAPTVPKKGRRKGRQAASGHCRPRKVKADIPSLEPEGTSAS
Description: Inhibition of NEIL1 by quantifying inhibition of NEIL1-mediated cleavage and dissociation of quenched duplex DNA oligonucleotides, measured as fluorescence at 594 nm.

[4] = target: T2, Single-strand selective monofunctional uracil DNA glycosylase (Homo sapiens) (UniProt Q53HV7); conditions: Hit No;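 note: enzymatic SMUG1 assay coupled with APE1, reading fluorescence at 594 nm released when a quenched double-stranded DNA oligonucleotide substrate is cleaved and separated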
T2 sequence (whole entry): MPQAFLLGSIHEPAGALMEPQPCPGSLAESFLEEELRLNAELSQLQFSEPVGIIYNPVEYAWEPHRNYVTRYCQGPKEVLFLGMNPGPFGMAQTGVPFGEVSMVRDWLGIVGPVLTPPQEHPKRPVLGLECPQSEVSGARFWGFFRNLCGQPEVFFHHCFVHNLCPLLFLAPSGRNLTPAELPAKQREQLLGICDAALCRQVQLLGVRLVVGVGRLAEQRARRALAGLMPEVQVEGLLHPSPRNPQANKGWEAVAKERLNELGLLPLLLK
Description: Inhibition of SMUG1 by quantifying inhibition of SMUG1-mediated cleavage and dissociation of quenched duplex DNA oligonucleotides, measured as fluorescence at 594 nm. To generate a functional strand incision and increase turn-over this assay is coupled to APE1.

[5] = target: T3, Adenine DNA glycosylase (Homo sapiens) (UniProt Q9UIF7); conditions: Hit No;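 note: human MUTYH activity read as 594 nm fluorescence from cleavage and release of a quenched DNA duplex, coupled with APE1 for strand incision, lower signal meaning inhibition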
T3 sequence (whole entry): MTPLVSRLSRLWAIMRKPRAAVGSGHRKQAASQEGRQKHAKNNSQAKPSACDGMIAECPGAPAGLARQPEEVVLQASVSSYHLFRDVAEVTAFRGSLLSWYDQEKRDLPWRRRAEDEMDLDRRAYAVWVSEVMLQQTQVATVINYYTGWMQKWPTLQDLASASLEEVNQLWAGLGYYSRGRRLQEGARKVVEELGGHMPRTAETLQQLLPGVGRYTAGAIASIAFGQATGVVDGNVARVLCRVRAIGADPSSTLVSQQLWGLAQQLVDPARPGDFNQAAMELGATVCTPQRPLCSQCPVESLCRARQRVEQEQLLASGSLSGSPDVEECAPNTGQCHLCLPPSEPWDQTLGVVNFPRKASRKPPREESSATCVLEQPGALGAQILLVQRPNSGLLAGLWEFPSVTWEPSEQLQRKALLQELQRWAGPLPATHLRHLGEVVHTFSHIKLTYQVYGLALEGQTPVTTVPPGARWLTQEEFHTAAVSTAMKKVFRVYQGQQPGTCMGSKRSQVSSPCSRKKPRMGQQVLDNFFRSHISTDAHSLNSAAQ
Description: Inhibition of MUTYH by quantifying inhibition of MUTYH-mediated cleavage and dissociation of quenched duplex DNA oligonucleotides, measured as fluorescence at 594 nm. To generate a functional strand incision and increase turn-over this assay is coupled to APE1.

[6] = target: Uracil-DNA glycosylase (Homo sapiens) (UniProt P13051); conditions: Hit No;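 note: UNG excision on a quenched double-stranded DNA oligo probe, with APE1 added for strand incision and turnover, read as fluorescence at 594 nm as strands separate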
Uracil-DNA glycosylase (Homo sapiens), sequence (P13051 whole entry): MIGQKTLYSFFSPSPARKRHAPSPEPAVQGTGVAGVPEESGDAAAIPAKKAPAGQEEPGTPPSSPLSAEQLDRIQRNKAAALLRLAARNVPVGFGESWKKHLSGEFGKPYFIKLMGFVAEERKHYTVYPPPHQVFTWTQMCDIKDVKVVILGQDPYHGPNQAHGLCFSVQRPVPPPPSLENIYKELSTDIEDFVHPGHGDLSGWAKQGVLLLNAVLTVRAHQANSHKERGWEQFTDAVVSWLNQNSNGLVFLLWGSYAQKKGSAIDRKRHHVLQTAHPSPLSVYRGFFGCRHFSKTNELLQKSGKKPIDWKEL
Description: Inhibition of UNG by quantifying inhibition of UNG-mediated cleavage and dissociation of quenched duplex DNA oligonucleotides, measured as fluorescence at 594 nm. To generate a functional strand incision and increase turn-over this assay is coupled to APE1.

[7] = target: G/T mismatch-specific thymine DNA glycosylase (Homo sapiens) (UniProt Q13569); conditions: Hit No;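 note: human TDG cleavage of quenched duplex DNA oligonucleotides coupled to APE1, strand release read as fluorescence at 594 nm, inhibition of TDG activity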
G/T mismatch-specific thymine DNA glycosylase (Homo sapiens), sequence (Q13569 whole entry): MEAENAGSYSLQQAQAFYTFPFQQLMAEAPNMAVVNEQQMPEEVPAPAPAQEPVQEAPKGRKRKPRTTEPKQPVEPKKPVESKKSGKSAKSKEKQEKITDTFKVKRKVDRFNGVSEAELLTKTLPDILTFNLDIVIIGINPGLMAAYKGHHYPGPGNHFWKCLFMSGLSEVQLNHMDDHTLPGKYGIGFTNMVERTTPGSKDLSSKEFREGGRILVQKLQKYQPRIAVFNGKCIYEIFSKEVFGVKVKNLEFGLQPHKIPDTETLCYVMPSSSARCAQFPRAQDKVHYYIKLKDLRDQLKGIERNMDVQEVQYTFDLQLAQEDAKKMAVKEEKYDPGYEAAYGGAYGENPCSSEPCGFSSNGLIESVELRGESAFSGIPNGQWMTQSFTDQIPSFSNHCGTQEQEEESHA
Description: Inhibition of TDG by quantifying inhibition of TDG-mediated cleavage and dissociation of quenched duplex DNA oligonucleotides, measured as fluorescence at 594 nm. To generate a functional strand incision and increase turn-over this assay is coupled to APE1.

[8] = target: N-glycosylase/DNA lyase (Homo sapiens) (UniProt O15527); conditions: Hit No;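 note: OGG1 cleavage of a quenched duplex DNA oligonucleotide, coupled to APE1 for strand incision, read as fluorescence at 594 nm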
N-glycosylase/DNA lyase (Homo sapiens), sequence (O15527 whole entry): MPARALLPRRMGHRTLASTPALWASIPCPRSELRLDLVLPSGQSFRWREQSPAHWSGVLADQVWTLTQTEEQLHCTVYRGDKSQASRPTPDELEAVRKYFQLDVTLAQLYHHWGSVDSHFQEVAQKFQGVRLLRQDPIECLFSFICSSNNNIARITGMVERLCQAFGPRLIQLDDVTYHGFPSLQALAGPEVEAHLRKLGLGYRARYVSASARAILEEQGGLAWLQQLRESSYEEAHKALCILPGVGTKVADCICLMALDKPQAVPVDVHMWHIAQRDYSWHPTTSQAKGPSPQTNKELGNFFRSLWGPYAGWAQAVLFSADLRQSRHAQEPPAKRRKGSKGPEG
Description: Inhibition of OGG1 by quantifying inhibition of OGG1-mediated cleavage and dissociation of quenched duplex DNA oligonucleotides, measured as fluorescence at 594 nm. To generate a functional strand incision and increase turn-over this assay is coupled to APE1.

[9] = Compound Concentration 10.0 uM, Hit No
[10] = Compound Concentration 1.0 uM, Hit No

Structure (SMILES) | inhibition [1, 9] | inhibition ([2]; Compound Concentration 10.0 uM) | inhibition ([3]; Compound Concentration 10.0 uM) | inhibition ([4]; Compound Concentration 10.0 uM) | inhibition ([5]; Compound Concentration 10.0 uM) | inhibition ([6]; Compound Concentration 10.0 uM) | inhibition ([7]; Compound Concentration 10.0 uM) | inhibition ([8]; Compound Concentration 10.0 uM) | inhibition [1, 10] | inhibition ([2]; Compound Concentration 1.0 uM) | inhibition ([3]; Compound Concentration 1.0 uM) | inhibition ([4]; Compound Concentration 1.0 uM) | inhibition ([6]; Compound Concentration 1.0 uM) | inhibition ([7]; Compound Concentration 1.0 uM) | inhibition ([8]; Compound Concentration 1.0 uM) | inhibition ([5]; Compound Concentration 1.0 uM) | inhibition ([1]; Compound Concentration 10.0 uM, Hit Yes)
CN1CCN(c2cnc3c(C4CCN(C(=O)c5ccc(OC(F)(F)F)cc5N)CC4)ncnc3c2)CC1 | -8.19% | 22.6% | -2.58% | 11.7% | 2.58% | 5.02% | 43.6% | -1.54% | – | – | – | – | – | – | – | – | –
Nc1c(C(=O)NCc2ccc(C(=O)NCCCC3CCCCC3)cc2)cnn1-c1ccccc1 | – | – | – | -1.31% | 5.04% | 4.78% | 35.6% | 19.8% | -8.91% | 59.9% | -2.11% | 3.4% | -7.24% | 47% | 3.23% | – | –
CCCOc1ccc([C@@H]2[C@@H](C(=O)O)[C@H](c3ccc4c(c3)OCO4)CN2CC(=O)Nc2c(CC)cccc2CC)cc1 | – | – | – | – | – | – | – | – | 9.71% | 66.2% | -3.17% | 18.8% | 4.27% | 57.1% | 12% | -8.3% | –
OCCOCCN1CCN(C(c2ccccc2)c2ccc(Cl)cc2)CC1 (stereo not given) | -2.98% | 1.54% | 4.39% | 2.34% | -3.56% | -3.83% | 3.31% | -2.03% | – | – | – | – | – | – | – | – | –
CCOC(=O)c1cc2cc(-c3cc(C(=O)NCc4ccc(C(=O)O)cc4)nn3C)ccc2[nH]1 | – | – | – | – | – | – | – | – | 11.2% | 61% | -4.68% | 6.69% | -2.54% | 41.7% | 9.53% | -1.36% | –
NS(=O)(=O)c1cc(NC(=O)Cc2ccccc2)ccc1Oc1cccc(Cl)c1 | -2.53% | 54.5% | -8.47% | 25.9% | -0.214% | 6.44% | 87.5% | 16.9% | – | – | – | – | – | – | – | – | –
COc1cc(-c2cn([C@H]3CCc4c(F)cccc4N(CC(F)(F)F)C3=O)nn2)ccc1-n1cnc(C)c1 | 11.2% | 40% | -9.83% | 19.7% | 0.879% | 4.8% | 47.4% | 6.38% | – | – | – | – | – | – | – | – | –
Cc1nc(Cc2cccc(C(F)(F)F)c2)sc1-c1ccc(C(N)=O)nc1 | – | – | – | – | – | – | – | – | -3.29% | 52% | -5.59% | 6% | -0.747% | 96.5% | 0.0328% | -2.4% | –
NC1(c2ccc(-c3nc4ccn5c(=O)[nH]nc5c4cc3-c3ccccc3)cc2)CCC1 | -9.46% | 37.9% | 17.6% | 29.1% | 56.1% | 17.3% | 71.2% | 10.8% | – | – | – | – | – | – | – | – | –
CC(C)c1c(CN(C)C(C)Cc2ccccc2)n(C)n(-c2ccccc2)c1=O (stereo not given) | -4.57% | 64.9% | 0.921% | 23.9% | 11% | 1.7% | 100% | 21.4% | – | – | – | – | – | – | – | – | –
CC1CCN(c2ccnc(NCc3cn(C)cn3)n2)CC1 | 3.08% | 67.6% | 1.98% | 15.3% | 19.8% | 5.91% | 50.4% | 19.9% | – | – | – | – | – | – | – | – | –
CNCc1ccccc1-c1csc([C@@H](C)Nc2nc(C)nc3cc(OC)c(OC)cc23)c1 | – | 8.88% | -5.89% | 5.31% | 19.2% | 14.2% | 66.2% | 16.5% | – | – | – | – | – | – | – | – | 38%
Cc1nc(C#Cc2cccnc2)cs1 | -1.88% | -0.814% | 1.49% | -8.43% | 5.76% | -6.91% | 4.62% | -7.91% | – | – | – | – | – | – | – | – | –
O=C(N[C@H]1CCCCC/C=C\C2C[C@@]2(C(=O)O)NC(=O)[C@@H]2C[C@@H](Oc3ccncc3)CN2C1=O)OC1CCCC1 (stereo not given in full) | -0.999% | 61.8% | 2.74% | 20% | 1.97% | 4.34% | 61.5% | 25.2% | – | – | – | – | – | – | – | – | –
N[C@@H]1CCCN(c2c(/C=C3\SC(=O)NC3=O)cccc2-c2ccccc2)C1 | – | – | – | – | – | – | – | – | 1.04% | 5.7% | -5.54% | 28.4% | 7.16% | 64.1% | 16.9% | 3.22% | –
N#CN1CC[C@@H](C(=O)Nc2nc3c(s2)CN(C(=O)CN=[N+]=[N-])CC3)C1 | -7.63% | 54.3% | 6.22% | 2.3% | -2.56% | 4.95% | 50.9% | 3.62% | – | – | – | – | – | – | – | – | –
O=C(c1cc2c(cc1F)OC(c1ccc(F)cc1)(c1ccc(Cl)cc1Cl)O2)N1CCOCC1 (stereo not given) | 8.5% | -9.38% | 3.95% | 5.83% | 25.5% | -5.46% | 17.8% | -5.3% | – | – | – | – | – | – | – | – | –
